Assay results: US20250032425A1, “FIRST IN CLASS USE OF ESTROGEN RECEPTOR BETA AGONISTS IN TREATING ANGELMAN SYNDROME AND RELEVANT AUTISM SPECTRUM DISORDERS” (BROWN UNIVERSITY, priority 2023, published 2025)
Entries after “also recorded” stand apart in the source; their conditions may differ.

Experiments:
[1] = test system: Angelman syndrome (AS) mice; test: Immunofluorescence histopathology of brain sections after treatment (oligodendroglia, myelination, ESRβ, UBE3A); assay type: in vivo, mouse
Method: For immunofluorescence with brain tissue sections, mice were sacrificed under deep anesthesia using Xylazine (10 mg/kg body weight) and Ketamine (100 mg/kg body weight) and perfused through the left cardiac ventricle with ice-cold phosphate-buffered saline (PBS) followed by 4% paraformaldehyde (PFA) in PBS. Whole brains were removed and post-fixed in 4% PFA overnight at 4° C. followed by sequential immersion in 15% and 30% sucrose for cryoprotection. The brain was then dissected and 25 μm coronal sections were prepared with a Cryostat Leica. Sections collected on the charged microscope slides (Globe Scientific #1354W) were processed for immunohistochemical staining as follows. In brief, tissue sections were blocked for 1 hour at room temperature (RT) in 5% goat/donkey serum (G/DS) with 0.3% Triton-X100 in 0.1 M phosphate buffer (0.3% PBST). After blocking, tissue sections were incubated in primary antibody diluted in blocking solution overnight at 4° C. The following day, sections were briefly washed 3 times for 5 min each at RT in PBS followed by incubation with secondary antibodies diluted in blocking solution for 2 hours at RT. Sections were then briefly washed 3 times for 5 min each at RT in PBS and mounted using EMS Shield Mount with Dabco (Electron Microscopy Sciences, #17985-200) mounting media with 4′,6-diamidino-2-phenylindole (DAPI) (Vector Laboratories, #H-1200) to stain cell nuclei.
For the purpose of imaging brain sections, we utilized both the BioTek Lionheart FX Automated Microscope and the Zeiss LSM 880 confocal laser-scanning microscope. The subsequent image analysis and quantification were conducted using NIH ImageJ software, employing the particle and intensity analysis macro for detailed examination. Channels were separated, and images from various experimental groups were thresholded uniformly to identify individual cells. In each brain, 20-30 cells were outlined for analysis. To determine the extent of colocalization, we applied the Zeiss ZEN Microscopy Software's colocalization coefficient analysis tool, which allowed for precise measurement of overlapping signals within the selected cells.
To assess the levels of UBE3A protein within oligodendroglial cells, dual immunofluorescent staining was conducted. This involved the use of a UBE3A antibody sourced from Santa Cruz Biotechnology (sc-10294) and an Olig2 antibody provided by Aves Labs (#OLIG2-0020). The corresponding secondary antibodies were tagged with Alexa 647 and Alexa 488 fluorophores. These procedures were applied to coronal brain sections harvested from postnatal days 7-10, 30, and 42 from both control and Angelman Syndrome (AS) mice. We utilized a 20× objective on a GENS microscope to capture confocal images of UBE3A and Olig2 expression. Subsequent analysis was performed using NIH ImageJ software, where fluorescence intensities, denoted in arbitrary units (a.u.), were measured to determine the relative quantities of UBE3A protein. The quantification process involved delineating areas of interest around Olig2-positive cells. Quantitative analysis of ESR2 and MBP proteins was carried out using a similar method.
(§1) ESRβ agonist AC-186 treatment in vivo. 10 mg/kg AC-186 was daily IP delivered after dissolved at high concentration (30 mg/ml) in DMSO and further diluted in 20% PEG300. Vehicle groups received the same volume and concentration of diluted DMSO in 20% PEG300. Treatment started at P13 and continued until mice were sacrificed at P42.

[2] = test system: Angelman syndrome (AS) mice; test: Hindlimb Clasping test in AS mice; assay type: in vivo, mouse
Method: Animal handling and experimental use strictly followed NIH guidelines and protocols approved by the local Institutional Animal Care and Use Committee (IACUC) of Brown University. In all experiments, Mice were age and gender-matched. Multiple liters were used for all experiments. Weaned mice, housed in groups of two to four per cage, were maintained on a 12-h light/dark cycle with food and water ad libitum.
as §1
The Hindlimb Clasping test, which was administered as delineated in a prior study, Guyenet et al., 2010 (A simple composite phenotype scoring system for evaluating 10 mouse models of cerebellar ataxia. J Vis Exp.), is a neurological evaluation that involves the temporary suspension of mice to observe their hindlimb reflexes, a reliable indicator of central nervous system pathology. This method involves a 10-second observation period during which the mice's hindlimb positions are closely monitored and scored. […]

[3] = test system: UBE3A-deficient iOPCs and iOLs; test: Oligodendrocyte differentiation of UBE3A-deficient iOPCs into iOLs (immunoblotting of Ki67, MAG, CNPase); assay type: cell-based, human; details: AC-186 (10 µM)
Method: FIG. 25C: Immunoblotting was conducted to assess the impact of UBE3A depletion on ESR-β expression during oligodendrocyte differentiation. Protein levels of ESR-β in UBE3A-deficient iOPCs and subsequently differentiated iOLs were quantified, normalized against the loading control GAPDH, and expressed relative to the iOPC+siNC control condition (set at 1.0). […] Levels of Ki67 and Myelin Associated Glycoprotein (MAG) were measured in UBE3A-deficient iOPCs and iOLs differentiated from them, normalized against GAPDH, and compared to the iOPC+siNC condition. n=4 experiments. FIG. 25E: Immunoblotting to examine the role of UBE3A for OPC self-renewal and oligodendrocyte differentiation across different developmental stages. Expression of maturation and myelination markers (MBP, MAG, PLP1, CNPase) was quantified following UBE3A depletion timed from iOPCs to pre-iOLs, normalized against TUBB1. and compared to the iOPC+siNC control condition (set at 1.0). n=4 experiments.

[4] = rodents and dogs; cited from earlier work
[5] = corpus callosum, AS mice vs AS saline
[6] = corpus callosum, AS mice vs AS vehicle
[7] = cortex, hippocampus, and fimbria, AS mice vs AS saline

Oc1ccc(C2(c3ccccc3F)CCC(F)(F)CC2)cc1 [AC-186]
UBE3A intensity ([1]; AS mice vs AS saline): did not modify; also recorded: comparable | oligodendrocyte populations and myelination ([1]; AS mouse brains): notably restored | ESRβ intensity in Olig2-positive and O4-positive cells [1, 5]: slightly increased; also recorded: increased | O4-positive cells/mm^2 [1, 5]: increased | Olig2-positive cells/mm^2 [1, 5]: increased | OPC density (PDGFRa-positive cells per square millimeter) [1, 6]: increased | proliferating OPCs (Ki67 and PDGFRa dual positive, proportion of total OPCs) [1, 6]: increased | MBP intensity [1, 7]: increased | O4-positive cell density [1, 7]: increased | Olig2-positive cell density [1, 7]: increased | oligodendrocyte populations and myelination ([1]; wildtype mice): no impact | Hindlimb clasping score ([2]; AS mice, 10 mg/kg daily IP from P13-14, vs AS vehicle, 10 mg/kg): significantly alleviated neurological symptoms; also recorded: decreased | Hindlimb clasping score ([2]; wildtype mice, 10 mg/kg daily IP): without affecting wildtype mice | oligodendrocyte differentiation (MAG, CNPase) with treatment at various stages, FIG. 26C ([3]; iOPC to pre-iOL to iOL stages): beneficial effects on differentiation were observed when administered during the iOPC stage | oligodendrocyte differentiation (MAG), FIG. 25D ([3]; UBE3A-deficient iOLs, clemastine (2.5 μM), 3 days): no impact on differentiation | bioavailability [4]: satisfactory bioavailability; also recorded: effective bioavailability
